For assay [1], the system named is Primo 2CS cells. Briefly: Glycerophosphate dehydrogenase (GPDH) activity during adipocyte differentiation of Primo 2CS cells. The assay is classed as cell-based. To be noted: Primo 2CS cells T22 in the presence of human bFGF; after 13 days of differentiation (3 experiments); control 22. The method, then:
(§1) The confluent cells are incubated in a DMEM/Ham's F12 (vol/vol, 1:1) medium supplemented with 100 U/ml of penicillin, 100 μg/ml of streptomycin, 5 μg/ml of human insulin (Sigma), 10 μg/ml of human transferrin (Sigma), 1 μM of PPAR activator (for example BRL49653), 100 to 250 μM of isobutyl-methylxanthine (IBMX) and 1 μM of dexamethasone. 48 to 72 hours later, this medium is replaced by the medium described above but containing no IBMX and dexamethasone. This differentiation medium is replaced every 2-3 days for a period of 15 to 20 days corresponding to an optimum adipocyte differentiation. Firstly, the cells which are to have the GPDH activity measure, are lysed. […] The reading is made with a spectrophotometer, allowing kinetic measurements to be carried out (KONTRON Uvicon 860 thermostatted at 37° C.).

Assay [2] relates to Primo 2CA cells. Briefly: Glycerophosphate dehydrogenase (GPDH) activity during adipocyte differentiation of Primo 2CA cells. It is filed as cell-based. To be noted: Primo 2CA cells T24 in the presence of human bFGF. As for the experimental part: as §1
The subject of assay [3] is adipocytes obtained from Primo 2CA T32 cells. The assay is described as follows: Lipolysis test (glycerol liberated by adipocytes in the presence of adrenergic receptor agonists). The assay is classed as cell-based, human. To be noted: adipocytes from Primo 2CA T32 cells (about 140 population doublings); control 5.76. As for the experimental part:
Lipolyses were carried out on adipocytes obtained from Primo 2CA T32 cells (about 140 population doublings), with agonists specific for different β-adrenergic receptors.
This test consists of measuring the radiolabelled glycerol liberated by adipocytes in the presence of adrenergic receptor agonists. The method used is that described by Bradley D C and Kaslow H R (Anal Biochem, 1989, 180, 11-16). The glycerol liberated is phosphorylated in the presence of glycerokinase and ATP and ATP labeled with ^32P in the […]. The residual ATP is then hydrolyzed in an acid medium at 90° C. and precipitated with ammonium molybdate and triethylamine. The radioactivity incorporated in the form of glycerophosphate labelled with ^32P is estimated by counting in a β counter and the values are expressed in pmol using a calibration curve.
Lipolyses were carried out on Primo 2CA T32 cells with specific agonists for the different β adrenergic receptors, namely: • Isoproterenol: β1, β2 adrenergic • Dobutamine: β1 adrenergic • Terbutaline: β2 adrenergic • CL316243 β3 adrenergic: […]

Assay [4] relates to stem cells of the invention. Briefly: Effect of Leukemia Inhibitory Factor on morphology and proliferation of the stem cells. It is filed as cell-based, human. To be noted: LIF 10 ng/ml. The method, then:
For this enrichment step, different culture media were tested.

The subject of assay [5] is CA population. The assay is described as follows: Effect of bFGF on proliferation of the quiescent CA population. It is filed as cell-based, human. The method, then:
The addition of growth factors such as bFGF incorporated, for example, at a concentration of about 3 to 20 ng/ml of medium, in particular 5 to 10 ng/ml, not only halves the population doubling time (for example the population doubling time without bFGF is about 72 hours, while it is about 36 hours with bFGF), but also allows the population to reach confluence. Without growth factors, proliferation of a quiescent population of stem cells of the invention can be provoked by trypsination and dilution, but proliferation will spontaneously stop at about 70% confluence. Since confluence is indispensable in vitro for initiating the differentiation of many cell types, the use of growth factors such as bFGF must be envisaged for in vitro production of this type of differentiated cell.
These observations confirm the quiescent state of the CA population and the state of senescence in the CS population.
After establishing a population of quiescent CA cells, human bFGF (basic Fibroblast Growth Factor) is added to the culture medium described above in a concentration of 5 ng/ml of medium.

Assay [6] concerns CS population. The assay is described as follows: Effect of bFGF on proliferation of the CS population at late stages. It is filed as cell-based, human. To be noted: bFGF 5 ng/ml, after 50 population doublings.

Entries after “also recorded” stand apart in the source; their conditions may differ.

`CN(CCOc1ccc(CC2SC(=O)NC2=O)cc1)c1ccccn1` (stereo not shown) [BRL49653]: the GPDH activity is reported as 30 nmol/min/mg of protein in assay [1]; 290 nmol/min/mg of protein in assay [2] (after 11 days of differentiation (2 experiments), control 77); 390 nmol/min/mg of protein in assay [2] (after 16 days of differentiation (3 experiments), control 20). Take `C[C@H](Cc1ccc2c(c1)OC(C(=O)[O-])(C(=O)[O-])O2)NC[C@H](O)c1cccc(Cl)c1.[Na+].[Na+]` [CL316243]: the lipolysis rate in assay [3] was 17.1 nmol/h/mg of protein. For `CC(CCc1ccc(O)cc1)NCCc1ccc(O)c(O)c1` (stereo not shown) [Dobutamine], in assay [3], the lipolysis rate is reported as 60.1 nmol/h/mg of protein.

As for `CC(C)(C)NCC(O)c1cc(O)cc(O)c1` (stereo not shown) [Terbutaline], in assay [3], the lipolysis rate is on record as 93.78 nmol/h/mg of protein. As for LIF: Leukemia Inhibitory Factor, the “effect on morphology or proliferation of the cells” value in assay [4] is given as “no change in the morphology or proliferation; also recorded: no changes in morphology or proliferation”.

Consider “bFGF: human basic Fibroblast Growth Factor”, for which, in assay [5] (bFGF 5 ng/ml, late stages, after 50 population doublings), the “effect on proliferation of CA population” value is “effectively respond”. Moreover, in assay [5] (with bFGF (about 3 to 20 ng/ml), about 72 hours without bFGF), the population doubling time result is “about 36 hours”. For the same compound, the “effect on proliferation of CS population” value in assay [6] is on record as “no significant effect; also recorded: practically no effect”.

These data come from patent US8334135B2, “Stem cells from adipose tissue, and differentiated cells from said cells” (Yves Saint Laurent Parfums, priority 2002, dated 2012).
